Structures are written as SMILES.

Format in all cases: biochemical
One assay has as its target T1, Syk (Homo sapiens, UniProt P43405).
T1 construct: purchased BPS Bioscience, CA, USA
Nature of the assay: Syk enzyme assay (flash plate / Caliper mobility shift). How it is done: The kinase assay is performed either as 384-well Flashplate assay (for e.g. Topcount measurement) or as 384-well Image-Flashplate assay (for LEADseeker measurement).
2.5 nM SYK, 400 nM Biotin-Aha-Aha-[…] and 10 μM ATP (spiked with 0.3 μCi 33P-ATP/well) are incubated in a total volume of 50 μl (60 mM Hepes, 10 mM MgCl2, 1.2 mM Dithiothreitol, 0.02% Brij35, 0.1% BSA, pH 7.5) with or without test compound for 1 hours at 30° C. The reaction is stopped with 25 μl 200 mM EDTA. After 30 Min at 30° C. the liquid is removed and each well washed thrice with 100 μl 0.9% sodium chloride solution. Non-specific reaction is determined in presence of 0.1 μM Staurosporine. Radioactivity is measured with Topcount (when using Flashplates) or with LEADseeker (when using Image-Flashplates) respectively. Results (e.g. IC50-values) are calculated with program tools provided by the IT-department (e.g. Symyx Assay Explorer, Genedata Screener).
(§1) Enzymatic Assays Using the Caliper LifeSciences Technology
(§2) The assays described here are performed on the Caliper Life Sciences LC3000 system This technology provides data on enzyme activity via measurement of the relative amounts of phosphorylated or unphosphorylated fluorescently labelled substrate peptide at the end of an enzymatic reaction. These different states of peptide are resolved by applying a potential difference across the sample. The presence of the charged phosphate group on the product (as opposed to the substrate) causes a different peptide mobility between the two peptides. This is visualized by excitation of the fluorescent label on the substrate and product peptides and represented as peaks within the analysis software.
(§3) In order to measure inhibitor activity of kinase inhibitors on this technology, a TTP Mosquito liquid handling instrument is used to place 0.25 ul of the appropriate concentration of inhibitor in 100% DMSO (for a dose response curve calculation) into each well of a 384-well plate. To this reaction components are added to a final volume of 25 ul. The table below indicates the sequences and concentrations for the assays described in this report. Standard components are 1 mM DTT (Sigma, D0632), 1 mM MgCl2 (Sigma, M1028), 100 mM HEPES pH 7.5 (Calbiochem, 391338), 0.015% Brij-35 (Sigma, B4184).
(§4) The reaction is incubated for 90 min at 25 C, and then stopped by the addition of 70 ul of Stop buffer (100 mM HEPES pH 7.5, 0.015% Brij-35, 10 mM EDTA (Sigma, E7889)).
(§5) The plate is read on a Caliper LC 3000 in an Off-Chip mobility shift assay format, on a 12-sipper chip. Unphosphorylated substrate and phosphorylated product peptide resolve as separate peaks allowing direct measurement of percentage of conversion of substrate to product. The percent conversion can be plotted against concentration of inhibitor to produce a sigmoidal dose response curve, from which an IC50 can be calculated using GeneData Condoseo or a similar product. Cellular activity assays

For another assay, the target named is T2, KDR (Homo sapiens, UniProt P35968).
T2 construct: purchased BPS Bioscience, CA, USA
Kind of assay: KDR enzymatic assay (Caliper LifeSciences technology). How it is done:
as §1, §2, §3, §4, §5

A further assay has as its target T3, ZAP-70 (Homo sapiens, UniProt P43403).
T3 construct: purchased BPS Bioscience, CA, USA
T3 sequence (P43403 1-619): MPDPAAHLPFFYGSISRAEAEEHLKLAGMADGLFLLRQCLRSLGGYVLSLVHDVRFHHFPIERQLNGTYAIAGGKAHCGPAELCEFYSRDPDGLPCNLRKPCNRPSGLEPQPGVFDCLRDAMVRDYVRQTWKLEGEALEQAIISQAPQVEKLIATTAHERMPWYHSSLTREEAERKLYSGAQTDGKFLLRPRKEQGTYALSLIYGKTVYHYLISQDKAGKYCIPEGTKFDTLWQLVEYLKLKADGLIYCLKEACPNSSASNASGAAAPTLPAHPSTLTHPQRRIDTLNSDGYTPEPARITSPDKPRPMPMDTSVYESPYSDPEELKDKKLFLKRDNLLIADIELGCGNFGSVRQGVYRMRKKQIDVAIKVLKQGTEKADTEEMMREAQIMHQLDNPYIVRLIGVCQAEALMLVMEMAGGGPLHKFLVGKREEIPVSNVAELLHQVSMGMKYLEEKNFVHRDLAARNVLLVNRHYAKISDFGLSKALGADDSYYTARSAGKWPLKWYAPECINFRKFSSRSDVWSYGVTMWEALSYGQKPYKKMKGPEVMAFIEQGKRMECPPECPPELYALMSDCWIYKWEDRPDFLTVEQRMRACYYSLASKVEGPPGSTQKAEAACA
Nature of the assay: Zap70 enzymatic assay (Caliper LifeSciences technology). How it is done: as §1, §2, §3, §4, §5

T2 sequence (P35968 20-1356): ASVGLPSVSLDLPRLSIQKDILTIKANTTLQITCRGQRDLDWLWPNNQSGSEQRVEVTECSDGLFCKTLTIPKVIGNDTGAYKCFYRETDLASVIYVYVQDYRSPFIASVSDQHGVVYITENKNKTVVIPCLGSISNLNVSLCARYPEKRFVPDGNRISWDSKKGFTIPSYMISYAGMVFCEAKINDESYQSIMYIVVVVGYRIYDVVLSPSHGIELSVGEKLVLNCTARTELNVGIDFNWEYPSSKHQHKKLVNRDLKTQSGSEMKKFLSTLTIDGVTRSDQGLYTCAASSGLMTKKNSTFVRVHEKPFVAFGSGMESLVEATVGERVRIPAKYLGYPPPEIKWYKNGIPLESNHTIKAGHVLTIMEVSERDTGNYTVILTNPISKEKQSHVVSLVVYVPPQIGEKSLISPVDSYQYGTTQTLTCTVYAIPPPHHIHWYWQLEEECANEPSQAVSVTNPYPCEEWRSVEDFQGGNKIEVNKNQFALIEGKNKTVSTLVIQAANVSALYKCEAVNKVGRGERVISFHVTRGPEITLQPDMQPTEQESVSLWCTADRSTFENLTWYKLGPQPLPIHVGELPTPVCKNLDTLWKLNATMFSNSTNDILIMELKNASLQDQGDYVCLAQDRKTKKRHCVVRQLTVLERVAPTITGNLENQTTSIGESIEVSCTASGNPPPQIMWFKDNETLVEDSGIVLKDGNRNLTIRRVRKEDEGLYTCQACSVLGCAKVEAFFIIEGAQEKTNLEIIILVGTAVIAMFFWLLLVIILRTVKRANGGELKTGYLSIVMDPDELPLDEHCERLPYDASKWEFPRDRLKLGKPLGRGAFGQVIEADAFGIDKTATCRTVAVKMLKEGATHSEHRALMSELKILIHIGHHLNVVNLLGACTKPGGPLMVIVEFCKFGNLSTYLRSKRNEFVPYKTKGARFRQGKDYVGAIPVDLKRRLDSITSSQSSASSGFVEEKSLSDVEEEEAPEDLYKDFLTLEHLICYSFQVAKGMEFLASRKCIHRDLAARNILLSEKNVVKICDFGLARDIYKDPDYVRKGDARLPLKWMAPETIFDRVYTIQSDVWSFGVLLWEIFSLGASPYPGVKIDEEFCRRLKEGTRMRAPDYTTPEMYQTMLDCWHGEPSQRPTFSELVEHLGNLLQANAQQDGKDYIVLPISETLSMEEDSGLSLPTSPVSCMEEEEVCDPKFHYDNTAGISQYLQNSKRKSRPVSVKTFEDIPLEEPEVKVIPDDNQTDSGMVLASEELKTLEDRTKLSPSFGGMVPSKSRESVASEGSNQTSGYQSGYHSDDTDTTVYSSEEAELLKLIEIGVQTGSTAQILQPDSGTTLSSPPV

On to `Cc1cccc(Nc2nc3c(Nc4ccc5c(c4)NC(=O)C(F)(F)O5)nccn3n2)c1` [Example C71, 2,2-Difluoro-6-(2-m-tolylamino-[1,2,4]triazolo[1,5-a]pyrazin-8-ylamino)-4H-benzo[1,4]oxazin-3-one], for which, at Syk, the IC50 is 3 to 50 µM.

Consider `FC(F)(F)c1cccc(Nc2nc3c(-c4ccc(N5CCOCC5)cc4)nccn3n2)c1` [Example C12, [8-(4-Morpholin-4-yl-phenyl)-[1,2,4]triazolo[1,5-a]pyrazin-2-yl]-(3-trifluoromethyl-phenyl)-amine], for which the IC50 on Syk is 3 to 50 µM.

Consider `Cc1cccc(Nc2nc3c(NCCN)nccn3n2)c1` [Example C45, N^8-(2-Amino-ethyl)-N^2-m-tolyl-[1,2,4]triazolo[1,5-a]pyrazine-2,8-diamine], for which the IC50 at Syk and on KDR was 3 to 50 µM throughout.

As to `COc1cc(Nc2nccn3nc(Nc4cccc(C(F)(F)F)c4)nc23)cc(OC)c1` [Example C87, N^8-(3,5-Dimethoxy-phenyl)-N^2-(3-trifluoromethyl-phenyl)-[1,2,4]triazolo[1,5-a]pyrazine-2,8-diamine], the half-inhibitory concentration (IC50) against ZAP-70 lay within 3 to 50 µM.

`Cc1cc(C)cc(Nc2nc3c(Nc4ccc5c(n4)NC(=O)C(C)(C)O5)nccn3n2)c1` [Example C60, 6-[2-(3,5-Dimethyl-phenylamino)-[1,2,4]triazolo[1,5-a]pyrazin-8-ylamino]-2,2-dimethyl-4H-pyrido[3,2-b][1,4]oxazin-3-one] yielded a half-inhibitory concentration (IC50) on ZAP-70 of 3 to 50 µM.

Turning to `O=C1Nc2cc(Nc3nc4c(Cl)nccn4n3)ccc2OC1(F)F` [Example B7, 6-(8-Chloro-[1,2,4]triazolo[1,5-a]pyrazin-2-ylamino)-2,2-difluoro-4H-benzo[1,4]oxazin-3-one], the IC50 at Syk lay in the range of 0.3 to 3 µM.

For the compound `COCCCNc1nccn2nc(Nc3cc(C)cc(C)c3)nc12` [Example C37, N^2-(3,5-Dimethyl-phenyl)-N^8-(3-methoxy-propyl)-[1,2,4]triazolo[1,5-a]pyrazine-2,8-diamine], the concentration for half-maximal inhibition (IC50) on Syk and at KDR was 3 to 50 µM in each case.

For `COc1ccc(Nc2nc3c(-c4cnc5ccccc5c4)nccn3n2)cn1` [Example C262, (6-Methoxy-pyridin-3-yl)-(8-quinolin-3-yl-[1,2,4]triazolo[1,5-a]pyrazin-2-yl)-amine], the IC50 on Syk was in the range of 0.3 to 3 µM.

Take `Cc1cc(C)cc(Nc2nc3c(NC4CCCCC4N)nccn3n2)c1` (stereo not drawn) [Example C56, N^8-(2-Amino-cyclohexyl)-N^2-(3,5-dimethyl-phenyl)-[1,2,4]triazolo[1,5-a]pyrazine-2,8-diamine]: the IC50 at Syk and against KDR was 3 to 50 µM in each case.

Take `FC(F)(F)c1cccc(Nc2nc3c(-c4ccccc4)nccn3n2)c1` [Example C9, (8-Phenyl-[1,2,4]triazolo[1,5-a]pyrazin-2-yl)-(3-trifluoromethyl-phenyl)-amine]: the IC50 fell in the range of 0.3 to 3 µM at Syk and 3 to 50 µM at KDR.

Turning to `c1ccc(Nc2nc3c(-c4ccccc4)nccn3n2)cc1` [Example C10, Phenyl-(8-phenyl-[1,2,4]triazolo[1,5-a]pyrazin-2-yl)-amine], the IC50 at Syk and against KDR was 0.3 to 3 µM each time.

As for `Cc1cccc(Nc2nc3c(Nc4cccc(C(F)(F)F)c4)nccn3n2)c1` [Example C73, N^2-m-Tolyl-N^8-(3-trifluoromethyl-phenyl)-[1,2,4]triazolo[1,5-a]pyrazine-2,8-diamine], the IC50 at Syk was 3 to 50 µM.

Regarding `COc1cc(OC)cc(-c2nccn3nc(Nc4cc(C)cc(C)c4)nc23)c1` [Example C15, [8-(3,5-Dimethoxy-phenyl)-[1,2,4]triazolo[1,5-a]pyrazin-2-yl]-(3,5-dimethyl-phenyl)-amine], the figures for the IC50 on Syk and on KDR were 0.3 to 3 µM and 3 to 50 µM, respectively.

Consider `COc1ccc(Nc2nc3c(-c4cccc(CN)c4)nccn3n2)cn1` [Example C254, [8-(3-Aminomethyl-phenyl)-[1,2,4]triazolo[1,5-a]pyrazin-2-yl]-(6-methoxy-pyridin-3-yl)-amine], for which, on Syk, the half-maximal inhibitory concentration (IC50) fell in the range of 0.3 to 3 µM.

For `NCCNc1nccn2nc(Nc3ccccc3)nc12` [Example C49, N^8-(2-Amino-ethyl)-N^2-phenyl-[1,2,4]triazolo[1,5-a]pyrazine-2,8-diamine], the IC50 at Syk and at KDR was 3 to 50 µM each time.

`COc1ccc(Nc2nc3c(-c4cccc(NS(C)(=O)=O)c4)nccn3n2)cn1` [Example C274, N-{3-[2-(6-Methoxy-pyridin-3-ylamino)-[1,2,4]triazolo[1,5-a]pyrazin-8-yl]-phenyl}-methanesulfonamide]: the IC50 on Syk lay within 0.3 to 3 µM.

`Cn1ccnc1Sc1ccc(Nc2nccn3nc(Nc4cccc(C(F)(F)F)c4)nc23)cc1Cl` [Example C68, N^8-[3-Chloro-4-(1-methyl-1H-imidazol-2-ylsulfanyl)-phenyl]-N^2-(3-trifluoromethyl-phenyl)-[1,2,4]triazolo[1,5-a]pyrazine-2,8-diamine]: the IC50 on Syk lay within 3 to 50 µM.

For the compound `COc1cc(Nc2nc3c(NC4CCCCC4N)nccn3n2)cc(OC)c1` (stereo not drawn) [Example C54, N^8-(2-Amino-cyclohexyl)-N^2-(3,5-dimethoxy-phenyl)-[1,2,4]triazolo[1,5-a]pyrazine-2,8-diamine], at Syk, the IC50 was 3 to 50 µM.

For the compound `COc1cc(OC)cc(-c2nccn3nc(Nc4cccc(C)c4)nc23)c1` [Example C17, [8-(3,5-Dimethoxy-phenyl)-[1,2,4]triazolo[1,5-a]pyrazin-2-yl]-m-tolyl-amine], the IC50 at Syk lay within 0.3 to 3 µM; against KDR, 3 to 50 µM.

With `Cc1cccc(Nc2nc3c(NC4CCCCC4N)nccn3n2)c1` (stereo not drawn) [Example C57, N^8-(2-Amino-cyclohexyl)-N^2-m-tolyl-[1,2,4]triazolo[1,5-a]pyrazine-2,8-diamine], the IC50 on Syk and against KDR was 3 to 50 µM in each case.

Take `COc1cc(Nc2nc3c(-c4cc(OC)cc(OC)c4)nccn3n2)cc(OC)c1` [Example C16, (3,5-Dimethoxy-phenyl)-[8-(3,5-dimethoxy-phenyl)-[1,2,4]triazolo[1,5-a]pyrazin-2-yl]-amine]: the IC50 at Syk was less than 0.3 µM.

On to `COCCCNc1nccn2nc(Nc3ccccc3)nc12` [Example C53, N^8-(3-Methoxy-propyl)-N^2-phenyl-[1,2,4]triazolo[1,5-a]pyrazine-2,8-diamine], for which the IC50 at Syk and on KDR was 3 to 50 µM each time.

As to `Cc1cc(C)cc(Nc2nc3c(-c4ccccc4)nccn3n2)c1` [Example C7, (3,5-Dimethyl-phenyl)-(8-phenyl-[1,2,4]triazolo[1,5-a]pyrazin-2-yl)-amine], the IC50 on Syk lay in the range of 0.3 to 3 µM.

In the case of `COc1cc(Nc2nc3c(-c4cnc5ccccc5c4)nccn3n2)cc(OC)c1` [Example C260, (3,5-Dimethoxy-phenyl)-(8-quinolin-3-yl-[1,2,4]triazolo[1,5-a]pyrazin-2-yl)-amine], the IC50 at Syk is less than 0.3 µM.

With `Cc1c(N)cccc1-c1nccn2nc(Nc3ccc(N4CCOCC4)cc3)nc12` [Example C293, [8-(3-Amino-2-methyl-phenyl)-[1,2,4]triazolo[1,5-a]pyrazin-2-yl]-(4-morpholin-4-yl-phenyl)-amine], the IC50 on Syk lay within 0.3 to 3 µM.

Turning to `Clc1nccn2nc(Nc3ccc4cnn(Cc5ccccc5)c4c3)nc12` [Example B9, (1-Benzyl-1H-indazol-6-yl)-(8-chloro-[1,2,4]triazolo[1,5-a]pyrazin-2-yl)-amine], at Syk, the concentration for half-maximal inhibition (IC50) lay within 3 to 50 µM.

One may read the IC50 as the concentration that gives 50% inhibition.

These data come from patent publication US9023851B2 (Merck Patent GmbH, priority 2010, dated 2015).
